Results: patent US6908919B2, “Substituted polycyclic aryl and heteroaryl pyrazinones useful for selective inhibition of the coagulation cascade” (Pharmacia Corporation, priority 1999, dated 2005)
Read-outs that look alike come from different tables or passages of the source.

Target: Human factor Xa (Homo sapiens, UniProt P00742)
Assay: Xa Assay
Type: biochemical
Parameters: purchased Enzyme Research Laboratories, South Bend Ind

Human factor Xa, sequence (P00742 41-179 limits assumed): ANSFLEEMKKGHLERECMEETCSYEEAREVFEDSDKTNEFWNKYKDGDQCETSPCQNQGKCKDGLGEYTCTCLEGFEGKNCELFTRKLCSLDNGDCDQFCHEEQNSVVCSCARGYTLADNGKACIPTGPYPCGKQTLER
Human factor Xa, sequence (P00742 235-488 limits assumed): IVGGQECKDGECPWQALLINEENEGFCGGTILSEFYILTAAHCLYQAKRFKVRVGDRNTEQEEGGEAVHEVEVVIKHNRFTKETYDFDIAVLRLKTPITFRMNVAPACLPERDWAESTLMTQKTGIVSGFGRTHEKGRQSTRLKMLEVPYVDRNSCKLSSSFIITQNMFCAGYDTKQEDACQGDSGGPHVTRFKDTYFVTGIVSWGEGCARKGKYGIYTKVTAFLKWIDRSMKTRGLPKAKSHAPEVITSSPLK

% Inhibition Factor Xa (30 µM) (at 30 µM inhibitor) | Compound | further results
16% @ 30 | Cc1ccccc1-c1c(Cl)nc(NCCc2ccccc2)c(=O)n1CC(=O)NCc1ccc(C(=N)N)cc1 [Example 78] | 
 | CC(CNc1nc(Cl)c(-c2cccc(N)c2)n(CC(=O)NCc2ccc(C(=N)N)cc2)c1=O)N(C)C (stereo not drawn) [1543-19] | % Inhibition Factor Xa (30 µM) (at 30 µM): 11%
 | N=C(N)c1ccc(CNC(=O)Cn2c(-c3cccc(N)c3)c(Cl)nc(NCCN3CCCC3)c2=O)cc1 [1543-03] | % Inhibition Factor Xa (30 µM) (at 30 µM): 34%
17% | N=C(N)c1ccc(CNC(=O)Cn2c(-c3cccc(Cl)c3)c(Cl)nc(NCCc3ccccc3)c2=O)cc1 [1471-31] | 
29% @ 30 | N=C(N)c1ccc(CNC(=O)Cn2c(-c3cccc4ccccc34)c(Cl)nc(NCCc3ccccc3)c2=O)cc1 [Example 80] | 
 | O=C(Cn1c(-c2ccc(Cl)cc2)c(Cl)nc(NCCN2CCOCC2)c1=O)NCCc1ccncc1 [Example E-0031] | % Inhibition Factor Xa (100 µM) (inhibitor at 100 µM): 0%
0% | N=C(N)NC/C=C\CNC(=O)Cn1c(-c2ccccc2)cnc(NCCc2ccccc2)c1=O [Example 37] | 
17% | N=C(N)c1ccc(CNC(=O)Cn2c(-c3ccc4c(c3)OCO4)c(Cl)nc(NCCc3cccnc3)c2=O)cc1 [1471-48] | 
36% | N=C(N)c1ccc(CNC(=O)Cn2c(-c3ccc(Cl)cc3)c(Cl)nc(NCCc3ccccc3)c2=O)cc1 [1471-23] | 
 | N=C(N)c1ccc(CNC(=O)Cn2c(-c3cccc(N)c3)c(Cl)nc(NC3CC3)c2=O)c(F)c1 [1543-33] | % Inhibition Factor Xa (30 µM) (at 30 µM): 14%
21% | N=C(N)c1ccc(CNC(=O)Cn2c(-c3ccccc3)c(Cl)nc(NCc3ccccc3Cl)c2=O)cc1 [1507-03] | 
3% | N=C(N)c1ccc(CNC(=O)Cn2c(-c3ccccc3)c(Cl)nc(NCc3cc(C(F)(F)F)ccc3F)c2=O)cc1 [1512-27] | 
 | C[C@@H](C(=O)NCc1ccc(C(=N)N)cc1)n1c(-c2ccccc2)c(Cl)nc(NCCc2ccccc2)c1=O [Example 1517-15] | % Inhibition Factor Xa (30 µM) (at 30 µM): 0%
6% | CC1CCCC(Nc2nc(Cl)c(-c3ccccc3)n(CC(=O)NCc3ccc(C(=N)N)cc3)c2=O)C1C (stereo not drawn) [1512-23] | 
9% | N=C(N)c1ccc(CNC(=O)Cn2c(-c3ccccc3)c(Cl)nc(NC3CCc4ccccc43)c2=O)cc1 (stereo not drawn) [1507-02] | 
5% | CCCCC(CC)Nc1nc(Cl)c(-c2ccccc2)n(CC(=O)NCc2ccc(C(=N)N)cc2)c1=O (stereo not drawn) [1512-12] | 
 | CN(C)CCNc1nc(Cl)c(-c2cccc(N)c2)n(CC(=O)NCc2ccc(C(=N)N)cc2)c1=O [1543-09] | % Inhibition Factor Xa (30 µM) (at 30 µM): 12%
21% | N=C(N)c1ccc(CNC(=O)Cn2c(-c3ccccc3)c(Cl)nc(NCCCCc3ccccc3)c2=O)cc1 [1507-43] | 
 | O=C(Cn1c(-c2ccc(Cl)cc2)c(Cl)nc(NCCc2cccc(Cl)c2)c1=O)NCCc1ccncc1 [Example E-0027] | % Inhibition Factor Xa (100 µM) (inhibitor at 100 µM): 0%
 | CC(C)CCNc1nc(Cl)c(-c2ccccc2)n(CC(=O)NCc2ccc(C(=N)N)cc2)c1=O [Example 1517-40] | % Inhibition Factor Xa (30 µM) (at 30 µM): 0%
10% | Cc1c(Cl)nc(NCc2ccccc2)c(=O)n1CC(=O)NCc1ccc(C(=N)N)cc1 [1471-1] | 
26% @ 30 | N=C(N)c1ccc(CNC(=O)Cn2c(-c3cccc(N)c3)c(Cl)nc(NCCc3ccccc3)c2=O)cc1 [Example 86] | 
4% | N=C(N)c1ccc(CNC(=O)Cn2c(-c3ccccc3)c(Cl)nc(NCCCc3ccccc3)c2=O)cc1 [1512-06] | 
 | O=C(Cn1c(-c2ccc(-c3ccccc3)cc2)c(Cl)nc(NCCc2ccc(Cl)cc2)c1=O)NCCc1cccnc1 [Example E-0119] | % Inhibition Factor Xa (100 µM): 5%

% Inhibition Factor Xa (30 µM) (at 30 µM inhibitor) | Compound | further results
 | N=C(N)c1ccc(CNC(=O)Cn2c(-c3cccc(N)c3)c(Cl)nc(NCCCN3CCCC3)c2=O)cc1 [1543-27] | % Inhibition Factor Xa (30 µM) (at 30 µM): 27%
8% | N=C(N)c1ccc(CNC(=O)Cn2c(-c3cccc(Cl)c3)c(Cl)nc(NCCN3CCOCC3)c2=O)cc1 [1471-28] | 
0% | N=C(N)c1ccc(CNC(=O)Cn2c(-c3c(Cl)cccc3Cl)c(Cl)nc(NCc3ccccc3)c2=O)cc1 [Example 1517-06] | 
33% @ 30 | Cc1cccc(-c2c(Cl)nc(NCCc3ccccc3)c(=O)n2CC(=O)NCc2ccc(C(=N)N)cc2)c1 [Example 81] | 
0% | CSCC(C(=O)NCc1ccc(C(=N)N)cc1)n1c(-c2ccccc2)c(Cl)nc(NCc2ccccc2)c1=O (stereo not drawn) [Example 1517-04] | 
10% @ 30 | Cc1c(N)cccc1-c1cnc(NC(C)C)c(=O)n1CC(=O)NCc1ccc(C(=N)N)cc1 [Example 98] | 
3% | COc1cccc(CNc2nc(Cl)c(-c3ccccc3)n(CC(=O)NCc3ccc(C(=N)N)cc3)c2=O)c1OC [1512-02] | 
0% | C[C@H](C(=O)NCc1ccc(C(=N)N)cc1)n1c(-c2ccccc2)c(Cl)nc(NC2CCC2)c1=O [Example 1517-11] | 
10% | N=C(N)c1ccc(CNC(=O)Cn2c(-c3ccccc3)c(Cl)nc(NC3CCCCCC3)c2=O)cc1 [1512-16] | 
41% | N=C(N)c1ccc(CNC(=O)Cn2c(-c3cccc(Cl)c3)c(Cl)nc(NCCc3cccc(Cl)c3)c2=O)cc1 [1471-30] | 
10% | COc1ccc(CCNc2nc(Cl)c(-c3ccccc3)n(CC(=O)NCc3ccc(C(=N)N)cc3)c2=O)cc1OC [1512-05] | 
8% | N=C(N)c1ccc(CNC(=O)Cn2c(-c3ccccc3)c(Cl)nc(NCc3ccc(Cl)cc3)c2=O)cc1 [1507-46] | 
 | N=C(N)c1ccc(CNC(=O)Cn2c(-c3c(Cl)cccc3Cl)c(Cl)nc(NC3CCC3)c2=O)cc1 [Example 1517-12] | % Inhibition Factor Xa (30 µM) (at 30 µM): 0%
16% | N=C(N)c1ccc(CNC(=O)Cn2c(-c3ccccc3)c(Cl)nc(NCCC3=CCCCC3)c2=O)cc1 [1507-17] | 
29% | N=C(N)c1ccc(CNC(=O)Cn2c(-c3ccccc3)c(Cl)nc(NCc3ccccc3)c2=O)cc1 [1471-9] | 
22% @ 30 | N=C(N)c1ccc(CNC(=O)Cn2c(-c3ccccc3)c(Cl)nc(NCCc3ccncc3)c2=O)cc1 [Example 19] | 
45% | N=C(N)c1ccc(CNC(=O)Cn2c(-c3ccccc3)c(Cl)nc(NCCc3ccc(Cl)cc3)c2=O)cc1 [1471-10] | 
32% @ 30 | N=C(N)c1ccc(CNC(=O)Cn2c(-c3ccc4ccccc4c3)c(Cl)nc(NCCc3ccccc3)c2=O)cc1 [Example 82] | 
 | N=C(N)c1ccc(CNC(=O)Cn2c(-c3cccc(N)c3)c(Cl)nc(NCCCn3ccnc3)c2=O)cc1 [1543-07] | % Inhibition Factor Xa (30 µM) (at 30 µM): 19%
0% | Cc1c(Cl)nc(NCc2ccncc2)c(=O)n1CC(=O)NCc1ccc(C(=N)N)cc1 [1471-3] | 
0% | CCc1c(Cl)nc(NCCc2ccc(Cl)cc2)c(=O)n1CC(=O)NCc1ccc(C(=N)N)cc1 [1471-58] | 
 | N=C(N)c1ccc(CNC(=O)Cn2c(-c3c(Cl)cccc3Cl)c(Cl)nc(NCCc3ccccc3)c2=O)cc1 [Example 1517-18] | % Inhibition Factor Xa (30 µM) (at 30 µM): 0%
 | CCCNc1nc(Cl)c(-c2cccc(N)c2)n(CC(=O)NCc2ccc(C(=N)N)cc2F)c1=O [1543-35] | % Inhibition Factor Xa (30 µM) (at 30 µM): 8%
0% | CC(C)Nc1nc(Cl)c(-c2cc(N)ccc2F)n(CC(=O)NCc2ccc(C(=N)N)cc2F)c1=O [Example 73] | 
